One experiment relates to human sv-VSMCs. The experiment is described as follows: PDGF-BB induced transwell migration of sv-VSMCs (Maresin-1). Format: cell-based. The settings on record: 1-100 nM; PDGF-BB 50 ng/ml; 15 hr. How it is done: MaR-1. VSMCs were serum starved for 1-2 days, then trypsinized and seeded in 8-μm-pore transwell inserts (Corning Glass Works, Corning, N.Y.) at a concentration of 30,000 cells per well. Cells were allowed to attach for 2 hr, then pretreated with Maresin-1 (1-100 nM) or vehicle (0.1% ethanol) control for 30 min before the addition of PDGF-BB (50 ng/ml; Sigma-Aldrich, St. Louis, Mo., USA) to the lower wells. 7S-Maresin-1 was added to both upper and lower wells for the full duration of chemotaxis experiment (15 hr). The membranes were fixed with methanol and cut out, mounted with DAPI, and migrated cells were counted under fluorescence microscope. Ten images per well were taken randomly under a 10× magnification and number of cells were counted in all the images to calculate mean for a given well.
VSMCs were pre-treated with vehicle or 7S-Maresin-1 for 30 min in a transwell insert before adding […] (50 ng/ml) to the outer chamber. Migrated VSMCs were fixed with methanol, stained with DAPI and counted under a fluorescent microscope.
FIGS. 20A-20D. Representative image of nine independent experiments. (A) Vehicle Control. (B) PDGF-BB, 50 ng/ml. (C) 7S-Maresin-1, 1 nm+PDGF-BB, 50 ng/ml. (D) 7S-Maresin-1, 100 nm+PDGF-BB, 50 ng/ml. (E) Graphical summary of nine independent experiments. P≤0.01, One-way ANOVA with Dunnett's post hoc test. *P<0.05 compared to […] (50 ng/ml). […]

The subject of experiment [1] is human saphenous vein endothelial (EC) cells. The experiment is described as follows: TNFα induced cellular ROS production (CellRox) in EC (Maresin-1). Conditions: TNFα 1 ng/ml. Format: cell-based. The protocol:
Mar-1. Cells were grown in 8-well chamber slides at a density of 15000 cells/well for 2 days for VSMCs and 50000 cells/well for 2 days for ECs in a 96 well plate. After treatments, cells were incubated with dihydroethidium (DHE, 3 μM, Invitrogen) or CellRox (Invitrogen Inc, 5 μM for ECs) in media for 30 minutes at 37° C. in a humidified chamber with 5% CO2 protected from light. DAPI nuclear counter staining was utilized for DHE staining. For DHE, fluorescence was detected with TRITC filter allowing the detection of the DHE emission wavelength of 590-620 nm. Fluorescence quantitation was performed using ImageJ analysis software. For ECs, fluorescence measurements were taken using a Spectramax M2e plate reader.
FIGS. 13A-13D. Representative merged images of DHE staining, counterstained with DAPI. (A), Negative control. (B), TNFα at 10 ng/ml for 4 hr. […] (E) Quantitative comparison of DHE staining intensity in the nucleus of human saphenous vein vascular smooth muscle (sv-VSMC) cells, treated with TNFα and 7S and 7R-Maresin-1 with and without pertussis toxin. (F) Quantitative comparison of cellular ROS production by CellRox (Life technologies, Carlsbad, Calif.) in human saphenous vein endothelial (EC) cells treated with TNFα (1 ng/nil) and 7S-Maresin-1 (N>=3). […]

A further experiment relates to p65 subunit. The experiment is described as follows: Nuclear translocation of p65 subunit in sv-VSMCs (immunofluorescence). Format: cell-based, human. The settings on record: 100 nm, 30 min; TNFα 10 ng/ml 2 hrs. The protocol: Immunofluorescence for p65 (RelA): 15000 VSMCs or 30000 ECs were seeded on a 8-well chamber slide. Cells received 30 min of Maresin-1 pretreatment, followed by TNF-α for 2 hr. Cells were fixed in 2% paraformaldehyde, followed by permeabilization with ice-cold acetone (10 min) and 1% Triton X-100 (20 min). Cells were incubated overnight in a humidified chamber with anti-p65 antibody (Santa Cruz Biotechnology Inc.) followed by Alexa-fluor 488 tagged secondary antibody (Life Technologies) and were visualized under a fluorescent microscope.
FIGS. 16A-16D. VSMCs were grown in chamber slides and treated with vehicle or 100 nm of 7S or 7R-Maresin-1 with/without 10 ng/ml pertussis toxin for 30 min, followed by TNFα (10 ng/ml) for 2 hrs. Cells were fixed and subsequently stained with anti-p65 (Santa Cruz Biotechnology) and secondary antibodies (Alexa-488). (A-D) Representative images of Ctrl (A), TNFα (B), 7R-Maresin-1+TNFα (C) and 7R-Maresin-1+pertussis toxin (10 ng/ml)+TNFα. (E) Mean fluorescence of nucleus and cytoplasm were quantified from all groups and the net result of the ratio of nucleus over cytoplasmic mean fluorescence is depicted in the bar graph, as a measure of relative p65 nuclear translocation. (N>=3). […]

For experiment [2], the system named is Stat1, C/EBP, SMAD, SATB1, EGR. The experiment is described as follows: Transcription factor multiplex array in TNF-α-stimulated VSMC. Format: cell-based, human. Conditions: 10 nM; TNF-α 10 ng/ml 18 hours. How it is done: Cells are plated onto 96-well plates and treated with 10 ng/ml TNF-α in the presence or absence of 10 nM RvD2 for 18 hours and then nuclear extracts are prepared. Transcription factor profiling is performed using a multiplex array according to the manufacturer's instructions (Signosis Inc., Sunnyvale, Calif.).
FIG. 11: RvD1 and RvD2 modulate activity of multiple transcription factors in TNF-α-stimulated VSMC. VSMCs were treated with TNF-α (10 ng/ml) for 18 hours and nuclear extracts were prepared. Transcription factor profiling was performed using a multiplex array.

The record followed here is US10111847B2, “Compounds and methods for modulating vascular injury” (The Regents of the University of California, priority 2012, dated 2018).

SMILES strings stand for the structures.

On to `CC/C=C\C/C=C\C[C@H](O)\C=C/C=C/C=C/[C@@H](O)C/C=C\CCC(=O)O` [7S-Maresin-1, 7S,14R-dihydroxydocosa-4Z,8E,10Z,12Z,16Z,19Z-hexaenoic acid], for which, in the experiment on human sv-VSMCs, the “PDGF-BB induced migration in human sv-VSMCs” value is on record as “Dose-Dependently Attenuates”. For the same compound, the “TNF-α-induced superoxide production in EC” value in experiment [1] is listed as “significantly reduced”. In addition, the “nuclear translocation of p65 subunit in human sv-VSMCs” value in the experiment on p65 subunit was “Inhibit”.

With `CC/C=C\C[C@H](O)[C@H](O)/C=C/C=C/C=C\C=C\[C@@H](O)C/C=C\CCC(=O)O` [RvD2, resolvin D2], the “transcription factor activity (Stat1, C/EBP, SMAD, SATB1, EGR) vs TNF-α-stimulated controls” value in experiment [2] is recorded as “significantly downregulated”.
